Key:
[1] = biological target: WT TTR (Homo sapiens (Human), UniProt P02766); assay: Acid-mediated fibril formation assay for TTR amyloidogenesis (turbidity); details: TTR 3.6 μM; for % fibril formation / TTR aggregation inhibition (in words): ligand 7.2 μM, 72 h; for % fibril formation: pH 4.4, 37° C., no ligand = 100%; for inhibition of fibril formation: substoichiometric: ligand 3.0 μM, monitored over 5 days
Method: The efficacy of each compound to inhibit TTR amyloidogenesis was determined by monitoring the turbidity of TTR aggregation at acidic pH, as described previously. […] The final 1 ml sample mixture was vortexed, then incubated at 37° C. for 72 hours, after which the sample was vortexed and the optical density was measured at 400 nm on a Beckman DU® 640 spectrophotometer. […] The optical density was also corrected for the absorption of all test compounds in the absence of TTR. […] The optical density (400 nm) was measured as described above at 0, 24, 48, 72, 96, and 120 hours. All assays were performed in triplicate and the average values obtained are presented.
TTR was preincubated with small molecules for 30 min at room temperature before amyloidosis was initiated (lowering pH to 4.4, incubation at 37° C.). […] The amyloidogenesis inhibition efficacy of each compound was determined by monitoring the turbidity of TTR (400 nm). The extent of TTR amyloidogenesis was quantitated at a fixed time point (72 h). All amyloid fibril formation data was normalized to TTR amyloidogenesis in the absence of inhibitor, assigned to be 100% fibril formation. […] The aggregation inhibition was monitored over 5 days using the acid-mediated fibril formation assay (compared to 3 days for the fixed time point described above) (FIG. 5B).

[2] = biological target: TTR (Homo sapiens (Human), UniProt P02766); assay: Determination of IC50 using the FP assay (HTS format, probe 5); type: binding; details: read-out: IC50 (compound concentration that resulted in 50% decrease in the FP signal); dose-response FP assay in duplicate
[3] = tested on: V122I TTR cytotoxicity in human AC16 cardiac cells; assay: Inhibition of V122I TTR cytotoxicity in AC16 cells; details: TTR and ligand 8 μM, 24 h
Method: (§1) The human cardiac cell line AC16 was maintained in DMEM:F12 (1:1) supplemented with 10% FBS, 1 mM Hepes buffer, 2 mM L-glutamine, 100 units/mL penicillin and 100 μg/mL streptomycin. Two to 4-day-old cultures (˜70% confluent) were used for the experiments.
(§2) Recombinant WT TTR purified in the cold in HBSS (Mediatech, Manassas, Va.) was used as a cytotoxic insult to IMR-32 cells and the amyloidogenic V122I TTR was used as cytotoxic insult to cardiac AC16 cells. Candidate compounds (16 mM in DMSO) were diluted 1:1000 with WT TTR or V122I TTR (16 mM in HBSS, filter sterilized) or with HBSS only. The mixtures were vortexed and incubated for 24 h at 4° C. WT TTR or V122I TTR (16 mM in HBSS) containing the same amount of DMSO than TTR/candidate compound mixtures was prepared in parallel and incubated under the same conditions.
(§3) The neuroblastoma IMR-32 and the cardiac AC16 cells were seeded in black wall, clear bottom, tissue culture treated 96-well plates (Costar) at a density of 6,000 cells/well and 250 cells/well, respectively in Opti-mem supplemented with 5% FBS, 1 mM Hepes buffer, 2 mM L-glutamine, 100 units/mL penicillin and 100 μg/mL streptomycin, 0.05 mg/mL CaCl2 and incubated overnight at 37° C. The medium was then removed and replaced immediately by the TTR/compound or HBSS previously diluted 1:1 in Opti-mem supplemented with 0.8 mg/mL BSA, 2 mM Hepes buffer, 4 mM L-glutamine, 200 units/mL penicillin, 200 μg/mL streptomycin and 0.1 mg/mL CaCl2. The cells were incubated 24 h at 37° C. after which cell viability was measured.
(§4) Cell viability of the cells treated with TTR or TTR/candidate compound was evaluated by a resazurin reduction assay. Briefly, 10 μL/well of resazurin (500 mM, PBS) was added to each well and incubated for 2-3 h at 37° C. Viable cells reduce resazurin to the highly fluorescent resorufin dye, which is quantitated in a multiwell plate reader (Ex/Em 530/590 nm, Tecan Safire2, Austria). Cell viability was calculated as percentage of fluorescence relative to cells treated with vehicle only (100% viability) after subtraction of blank fluorescence (wells without cells). All experimental conditions were performed at least in six replicates. Averages and SEM corresponding to 2 independently performed experiments were calculated.
(§5) The compounds under study were pre-incubated with WT TTR or V122I TTR for 24 h at 4° C. at equimolar concentrations (8 μM) and added to IMR-32 cells or AC16 cells, respectively. Cell viability was measured after 24 h by a resazurin reduction assay. […] The percentage of viable cells was calculated relative to cells treated with vehicle only (cell culture media and DMSO)—which were assigned to be 100% viable.

[4] = tested on: WT TTR cytotoxicity in human IMR-32 neuroblastoma cells; assay: Inhibition of WT TTR cytotoxicity in IMR-32 cells; details: TTR and ligand 8 μM, 24 h
Method: as §1, §2, §3, §4, §5

[5] = biological target: human wild type TTR (Homo sapiens (Human), UniProt P02766); assay: Isothermal titration calorimetry (ITC) of ligands against TTR; type: binding; details: for TΔS binding entropy / ΔG binding free energy / ΔH binding enthalpy: ITC; for Kd: TTR 2 μM titrated with ligand 25 μM, 25° C., one-to-one binding model, read-out: Kd (ITC)
Method: Calorimetric titrations were carried out on a VP-ITC calorimeter (MicroCal, Northhampton, Mass.). […] Prior to each titration, all samples were degassed for 10 minutes. The initial injection of 3.0 μL was followed by 30 injections of 8.0 μL each (25° C.) to the point that TTR was fully saturated with ligand. Integration of the thermogram after subtraction of blanks yielded a binding isotherm that was analyzed with MicroCal Origin 5.0 software.

% fibril formation [1] [%]	IC50 [2] [nM]	Compound	other results
0.43 ± 0.61	277	COc1ccc(/C=N/n2c(S)nnc2C(F)(F)F)cc1O	–
5.77 ± 3.91	586	Cc1[nH]c2ccccc2c1C(C#N)(C#N)C1C(=O)c2ccccc2C1=O	–
24.36 ± 1.11	4220	O=c1c(Oc2ccccc2Cl)c(C(F)(F)F)oc2cc(O)ccc12	–
9.60 ± 1.58	2660	COc1ccccc1CC(=O)c1ccc(O)cc1O	–
0.00 ± 0.00	1310	Cc1n[nH]c(C)c1CCc1nc2c3ccccc3[nH]c(=S)n2n1 [drawing 73]	–
35.32 ± 3.69	5600	Oc1nc(O)c2sc3nc(C(F)(F)F)cc(Cc4ccccc4)c3c2n1	–
50.96 ± 1.98	10000	O=C(NCc1cc(Br)cc(Br)c1O)c1ccccc1	–
0.37 ± 0.53	301	COc1c(Br)cc(/C=C2\SC(=O)NC2=O)cc1Br	–
38.38 ± 3.33	5800	O=C1NC(=O)/C(=C/c2ccccc2OCc2ccccc2)S1	–
0.00 ± 0.00	–	CCOc1ccccc1-c1nc(-c2ccncc2)no1	–
13.91 ± 1.28	3710	O=c1c(Oc2ccccc2Br)coc2cc(O)ccc12	–
1.92 ± 1.08	815	O=C1NC(=O)/C(=C/c2cccc(C(F)(F)F)c2)S1	–
49.43 ± 4.26	10600	CC(=O)Nc1ccc(Nc2nc3ccccc3nc2NS(=O)(=O)c2ccc(C)cc2)cc1	–
11.56 ± 0.72	3740	O=C(O)Cc1ccccc1Nc1c(O)cccc1Cl	–
3.22 ± 0.34	842	O=C1NC(=O)/C(=C/c2cccc3ccccc23)S1	–
1.81 ± 2.56	2580	O=C(O)c1cc2nc(-c3ccc(Cl)c(Cl)c3)cc(C(F)(F)F)n2n1	–
46.24 ± 1.33	8690	CC1=C(CCC(=O)O)C(=O)N2c3ccccc3NC2C1C#N (stereo not drawn)	–
47.39 ± 1.94	11000	Cc1nc2c(C(=O)NCCC(C)C)cnn2c(O)c1Cc1ccccc1F	–
13.90 ± 5.52	3930	O=C1NC(=O)/C(=C/c2ccc(-c3ccc(Cl)c(C(=O)O)c3)o2)S1	–
43.25 ± 4.35	5410	O=C1C(Br)=CC(=NS(=O)(=O)c2ccccc2)C=C1Br	–
0.52 ± 0.73	433	CC1(C)NC(=O)C(C#N)=C(SCc2ccccc2)S1	–

The next lines start with the compound.

Compound	% fibril formation [1] [%]	IC50 [2] [nM]	other results
O=C(c1cc(O)c(O)c([N+](=O)[O-])c1)c1ccccc1F [drawing 69]	0.32 ± 0.45	755	–
O=[N+]([O-])c1cc(O)c(O)c([N+](=O)[O-])c1 [3,5-dinitrocatechol, reference compound]	–	–	TTR aggregation inhibition (in words) [1]: potent aggregation inhibitors; prevention of V122I TTR-induced cytotoxicity (in words) [3]: poor inhibitor; prevention of WT TTR-induced cytotoxicity (in words) [4]: poor inhibitor
O=C(c1cc(O)c(O)c([N+](=O)[O-])c1)c1ccccc1F [Ro 41-0960, reference compound]	–	–	TTR aggregation inhibition (in words) [1]: potent aggregation inhibitors; inhibition of fibril formation [1]: > 75%; prevention of V122I TTR-induced cytotoxicity (in words) [3]: completely prevented TTR-induced cytotoxicity; prevention of WT TTR-induced cytotoxicity (in words) [4]: completely prevented TTR-induced cytotoxicity; TΔS binding entropy [5]: -4.3 ± 0.11 kcal/mol; ΔG binding free energy [5]: -9.18 ± 0.47 kcal/mol; ΔH binding enthalpy [5]: -13.5 ± 0.32 kcal/mol; TΔS binding entropy ([5]; listed as Ro41-0960): -4.3 ± 0.11 kcal/mol; ΔG binding free energy ([5]; listed as Ro41-0960): -9.18 ± 0.47 kcal/mol; ΔH binding enthalpy ([5]; listed as Ro41-0960): -13.5 ± 0.32 kcal/mol; Kd [5]: 184 nM
Cc1n[nH]c(C)c1CCCOc1ccccc1F [Compound 7]	–	–	inhibition of fibril formation [1]: > 75%; prevention of V122I TTR-induced cytotoxicity (in words) [3]: completely prevented TTR-induced cytotoxicity; prevention of WT TTR-induced cytotoxicity (in words) [4]: completely prevented TTR-induced cytotoxicity; TΔS binding entropy [5]: -0.15 ± 0.002 kcal/mol; ΔG binding free energy [5]: -8.86 ± 0.17 kcal/mol; ΔH binding enthalpy [5]: -9.01 ± 0.13 kcal/mol; Kd [5]: 321 nM
O=c1cc(-c2ccc(O)cc2)oc2cc(O)cc(O)c12	10.07 ± 0.53	653	–
NCCOCCOCCOc1c(Cl)cc(Nc2ccccc2C(=O)O)cc1Cl [Compound 4, 2-(4-(2-(2-(2-aminoethoxy)ethoxy)ethoxy)-3,5-dichlorophenylamino)benzoic acid]	–	–	TΔS binding entropy [5]: 0.08 ± 0.01 kcal/mol; ΔG binding free energy [5]: -8.93 ± 0.14 kcal/mol; ΔH binding enthalpy [5]: -8.85 ± 0.95 kcal/mol; Kd [5]: 285 nM
Cc1n[nH]c(C)c1CCCOc1ccccc1F [drawing 61]	0.75 ± 1.06	296	–
N#CC1=C(SCc2ccccc2)SC(c2ccccc2O)NC1=O (stereo not drawn)	3.17 ± 4.48	4790	–
CN1C(=N)NC(=O)/C1=C/c1cc(Br)c(O)c(Br)c1 [drawing 72]	0.00 ± 0.00	1150	–
CSC1=NSC2=NC(=O)/C(=C\c3cccc4ccccc34)C(=N)N12	28.77 ± 6.36	4880	–
O=C(O)c1ccccc1Nc1cc(Cl)c(OCCOCCOCCNC(=S)Nc2ccc3c(c2)C(=O)OC32c3ccc(O)cc3Oc3cc(O)ccc32)c(Cl)c1 [Compound 5, 2-(3,5-dichloro-4-(2-(2-(2-(3-(3′,6′-dihydroxy-3-oxo-3H-spiro[isobenzofuran-1,9′-xanthene]-5-yl)thioureido)ethoxy)ethoxy)ethoxy)phenylamino)benzoic acid]	–	–	decrease in binding affinity to TTR on attaching FITC to 4 ([5]; 5 relative to 4): ~3 fold; TΔS binding entropy [5]: 1.44 ± 0.07 kcal/mol; ΔG binding free energy [5]: -8.30 ± 0.45 kcal/mol; ΔH binding enthalpy [5]: -6.86 ± 0.36 kcal/mol; Kd [5]: 820 nM
O=C(O)c1cccnc1Nc1cccc(C(F)(F)F)c1 [Niflumic acid, niflumic acid, reference compound]	–	–	TTR aggregation inhibition (in words) [1]: potent aggregation inhibitors; prevention of V122I TTR-induced cytotoxicity (in words) [3]: relatively poor inhibitor
Cc1ccccc1/C=C1\SC(=O)NC1=O	10.44 ± 4.88	3350	–
CCOc1cc(C2NC(C(=O)O)CS2)cc(Br)c1OCc1ccccc1C (stereo not drawn)	17.57 ± 4.81	4930	–
Cc1n[nH]c(C)c1CCc1nc2c3ccccc3[nH]c(=S)n2n1 [Compound 15]	–	–	inhibition of fibril formation [1]: > 75%; prevention of V122I TTR-induced cytotoxicity (in words) [3]: completely prevented TTR-induced cytotoxicity; prevention of WT TTR-induced cytotoxicity (in words) [4]: completely prevented TTR-induced cytotoxicity
O=C(O)c1cccnc1Nc1cccc(C(F)(F)F)c1 [drawing 60]	4.83 ± 1.19	–	–
O=[N+]([O-])c1cc(O)c(O)c([N+](=O)[O-])c1 [drawing 68]	1.08 ± 0.59	–	–
COc1cc(/C=C2\C(=N)N3N=C(S(C)(=O)=O)SC3=NC2=O)ccc1OCc1ccccc1C	48.25 ± 0.68	9760	–

From patent US8877795B2, “Identification of stabilizers of multimeric proteins” (The Board of Trustees of the Leland Stanford Junior …, priority 2010, dated 2014)
